{"source": "paper PMC8976029", "about": "“Gut microbiota production of trimethyl-5-aminovaleric acid reduces fatty acid oxidation and accelerates cardiac hypertrophy” (Nature Communications, 2022)", "target": "T1, OCTN2 (hOCTN2) (Homo sapiens, UniProt O76082)", "T1 construct": "gene SLC22A5; human OCTN2 stably overexpressed in MDCK cells; no tag stated", "T1 sequence (O76082 1-557)": "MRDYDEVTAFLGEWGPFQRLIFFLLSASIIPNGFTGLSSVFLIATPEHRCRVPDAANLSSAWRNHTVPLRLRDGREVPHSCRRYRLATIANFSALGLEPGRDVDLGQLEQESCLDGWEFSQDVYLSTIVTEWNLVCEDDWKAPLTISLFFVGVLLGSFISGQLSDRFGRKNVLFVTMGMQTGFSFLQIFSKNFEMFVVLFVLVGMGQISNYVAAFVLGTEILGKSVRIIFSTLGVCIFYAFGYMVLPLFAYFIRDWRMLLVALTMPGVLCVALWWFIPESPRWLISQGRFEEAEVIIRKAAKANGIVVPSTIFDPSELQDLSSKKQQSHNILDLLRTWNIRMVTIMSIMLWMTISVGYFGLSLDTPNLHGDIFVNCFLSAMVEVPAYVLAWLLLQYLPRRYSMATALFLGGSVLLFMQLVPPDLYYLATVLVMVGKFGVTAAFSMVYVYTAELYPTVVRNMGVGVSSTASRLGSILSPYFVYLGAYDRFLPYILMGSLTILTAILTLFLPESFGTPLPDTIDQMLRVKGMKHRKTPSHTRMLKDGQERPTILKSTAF", "assay": "d9-carnitine uptake inhibition, LC-MS/MS", "assay_type": "cell-based", "description": "d9-carnitine uptake inhibition, LC-MS/MS on OCTN2 (hOCTN2) | TMAVA reduced the uptake of d9-carnitine in a concentration-dependent manner with an IC50 of […]", "data": [{"molecule": "C[N+](C)(C)CCCCC(=O)O", "note": "[TMAVA, N,N,N-trimethyl-5-aminovaleric acid]", "values": [{"measurement": "IC50", "result": 4.15, "unit": "µM"}]}]}
